# Several values for one entry are separate records, joined by “and”; a condition that tells them apart may be missing. Identical values can stand only once.
# Assays:
# [1] = test system: human primary hepatocytes; assay: Metabolic disposition of [^14C]-Compound 1 and [^14C]-2′-C-methyl guanosine in human primary hepatocytes (incubation medium, cellular extracts, nucleotide levels); assay type: in vitro ADME
# In short: (§1)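 Rat, monkey or human primary hepatocytes on collagen I plates (1.6 million cells/mL) were incubated at 37° C with 1 or 10 μM C-8 [^14C]-labelled compound or 2′-C-methyl guanosine for 1, 4, 8 and 24 hours. Medium and 70% methanol cell extracts were analysed by LSC and radio-HPLC. Nucleotides were identified by alkaline phosphatase treatment and retention-time matching to standards.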
# [2] = test system: monkey primary hepatocytes; assay: Metabolic disposition of [^14C]-Compound 1 and [^14C]-2′-C-methyl guanosine in monkey primary hepatocytes (incubation medium, cellular extracts, nucleotide levels); assay type: in vitro ADME, Cynomolgus monkey; conditions: for AUC (area under the concentration-time curve) of Compound 7 levels: 0-24 h
# In short: as §1
# [3] = monkey hepatocytes (Cy234), 10 μM [^14C]-Compound 1, 4 h
# [4] = monkey hepatocytes Cy230, 10 μM [^14C]-2′-C-methyl guanosine, 1 h
# [5] = monkey hepatocytes Cy230, 10 μM [^14C]-2′-C-methyl guanosine, 8 h
# [6] = monkey hepatocytes Cy230, 10 μM [^14C]-2′-C-methyl guanosine, 24 h
# [7] = monkey hepatocytes Cy234, 10 μM [^14C]-2′-C-methyl guanosine, 1 h
# [8] = monkey hepatocytes Cy234, 10 μM [^14C]-2′-C-methyl guanosine, 4 h
# [9] = monkey hepatocytes Cy234, 10 μM [^14C]-2′-C-methyl guanosine, 8 h
# [10] = monkey hepatocytes Cy234, 10 μM [^14C]-2′-C-methyl guanosine, 24 h
smiles,measurement,setting,value
"C[C@@]1(O)[C@H](O)[C@@H](COP(=O)(O)OP(=O)(O)OP(=O)(O)O)O[C@H]1n1cnc2c(=O)[nH]c(N)nc21 [Compound 7, [(2R)-2-methyl-β-D-ribofuranosyl]guanine 5′-triphosphate]",AUC (area under the concentration-time curve) of Compound 7 levels,"[1]; human hepatocytes Hu775, 10 μM [^14C]-Compound 1, 0-24 h",9036 pmol * hr/million cells
same,2′-C-methyl guanosine nucleotide levels in cellular extracts,"[1]; human hepatocytes Hu775, 10 μM [^14C]-Compound 1, 1 h",54 pmol/million cells and 54.0 pmol/million cells
same,2′-C-methyl guanosine nucleotide levels in cellular extracts,"[1]; human hepatocytes Hu775, 10 μM [^14C]-Compound 1, 4 h",216 pmol/million cells
same,2′-C-methyl guanosine nucleotide levels in cellular extracts,"[1]; human hepatocytes Hu775, 10 μM [^14C]-Compound 1, 8 h",366 pmol/million cells
same,2′-C-methyl guanosine nucleotide levels in cellular extracts,"[1]; human hepatocytes Hu775, 10 μM [^14C]-Compound 1, 24 h",564 pmol/million cells
same,Compound 7 maximal levels,"[1]; human hepatocytes, 1 μM [^14C]-Compound 1",60.4 pmol/million cells
same,Maximum Compound 7 levels,"[1]; human hepatocytes, 10 μM [^14C]-2′-C-methyl guanosine, at 24 hours",215 pmol/million cells
same,Maximum Compound 7 levels,"[1]; human hepatocytes, 10 μM [^14C]-Compound 1, at 24 hours, mean of two donors",296 pmol/million cells
same,metabolites observed in cellular extracts (% of total radioactivity),"[2]; monkey hepatocytes (Cy230, Cy234), 10 μM [^14C]-Compound 1, 1 h",63.4% and 34.9%
same,metabolites observed in cellular extracts (% of total radioactivity),"[2]; monkey hepatocytes (Cy230, Cy234), 10 μM [^14C]-Compound 1, 8 h",80.9% and 77.6%
same,metabolites observed in cellular extracts (% of total radioactivity),"[2]; monkey hepatocytes (Cy230, Cy234), 10 μM [^14C]-Compound 1, 24 h",72.2% and 79.4%
same,2′-C-methyl guanosine nucleotide levels in cellular extracts,[2]; [3],183 pmol/million cells
same,metabolites observed in cellular extracts (% of total radioactivity),[2]; [3],70.3%
same,2′-C-methyl guanosine nucleotide levels in cellular extracts,"[2]; monkey hepatocytes Cy230, 10 μM [^14C]-2′-C-methyl guanosine, 0 h",0 pmol/million cells
same,AUC (area under the concentration-time curve) of Compound 7 levels,"[2]; monkey hepatocytes Cy230, 10 μM [^14C]-2′-C-methyl guanosine",241 pmol * hr/million cells
same,2′-C-methyl guanosine nucleotide levels in cellular extracts,[2]; [4],2.87 pmol/million cells
same,Major metabolites observed in cellular extracts (% of total radioactivity),[2]; [4],3.63 % of total radioactivity
same,2′-C-methyl guanosine nucleotide levels in cellular extracts,[2]; [5],14.58 pmol/million cells and 14.6 pmol/million cells
same,Major metabolites observed in cellular extracts (% of total radioactivity),[2]; [5],19.9 % of total radioactivity
same,2′-C-methyl guanosine nucleotide levels in cellular extracts,[2]; [6],6.85 pmol/million cells
same,Major metabolites observed in cellular extracts (% of total radioactivity),[2]; [6],26.6 % of total radioactivity
same,2′-C-methyl guanosine nucleotide levels in cellular extracts,"[2]; monkey hepatocytes Cy230, 10 μM [^14C]-Compound 1, 0 h",0 pmol/million cells
same,AUC (area under the concentration-time curve) of Compound 7 levels,"[2]; monkey hepatocytes Cy230, 10 μM [^14C]-Compound 1",13765 pmol * hr/million cells
same,2′-C-methyl guanosine nucleotide levels in cellular extracts,"[2]; monkey hepatocytes Cy230, 10 μM [^14C]-Compound 1, 1 h",180 pmol/million cells
same,2′-C-methyl guanosine nucleotide levels in cellular extracts,"[2]; monkey hepatocytes Cy230, 10 μM [^14C]-Compound 1, 8 h",895 pmol/million cells
same,2′-C-methyl guanosine nucleotide levels in cellular extracts,"[2]; monkey hepatocytes Cy230, 10 μM [^14C]-Compound 1, 24 h",344 pmol/million cells
same,2′-C-methyl guanosine nucleotide levels in cellular extracts,"[2]; monkey hepatocytes Cy234, 10 μM [^14C]-2′-C-methyl guanosine, 0 h",0 pmol/million cells
same,AUC (area under the concentration-time curve) of Compound 7 levels,"[2]; monkey hepatocytes Cy234, 10 μM [^14C]-2′-C-methyl guanosine",956 pmol * hr/million cells
same,2′-C-methyl guanosine nucleotide levels in cellular extracts,[2]; [7],4.00 pmol/million cells
same,Major metabolites observed in cellular extracts (% of total radioactivity),[2]; [7],8.70 % of total radioactivity
same,2′-C-methyl guanosine nucleotide levels in cellular extracts,[2]; [8],29.0 pmol/million cells
same,Major metabolites observed in cellular extracts (% of total radioactivity),[2]; [8],35.6 % of total radioactivity
same,2′-C-methyl guanosine nucleotide levels in cellular extracts,[2]; [9],39.0 pmol/million cells
same,Major metabolites observed in cellular extracts (% of total radioactivity),[2]; [9],43.0 % of total radioactivity
same,2′-C-methyl guanosine nucleotide levels in cellular extracts,[2]; [10],57.0 pmol/million cells
same,Major metabolites observed in cellular extracts (% of total radioactivity),[2]; [10],51.8 % of total radioactivity
same,2′-C-methyl guanosine nucleotide levels in cellular extracts,"[2]; monkey hepatocytes Cy234, 10 μM [^14C]-Compound 1, 0 h",0 pmol/million cells
same,AUC (area under the concentration-time curve) of Compound 7 levels,"[2]; monkey hepatocytes Cy234, 10 μM [^14C]-Compound 1",9861 pmol * hr/million cells
same,2′-C-methyl guanosine nucleotide levels in cellular extracts,"[2]; monkey hepatocytes Cy234, 10 μM [^14C]-Compound 1, 1 h",22.0 pmol/million cells
same,2′-C-methyl guanosine nucleotide levels in cellular extracts,"[2]; monkey hepatocytes Cy234, 10 μM [^14C]-Compound 1, 8 h",476 pmol/million cells
same,2′-C-methyl guanosine nucleotide levels in cellular extracts,"[2]; monkey hepatocytes Cy234, 10 μM [^14C]-Compound 1, 24 h",552 pmol/million cells
same,Maximum Compound 7 levels,"[2]; monkey hepatocytes, 10 μM [^14C]-2′-C-methyl guanosine, at 24 hours",32 pmol/million cells
same,Compound 7 AUC0-24h,"[2]; monkey hepatocytes, 10 μM [^14C]-Compound 1","11,813 pmol*h/million cells"
same,"major intracellular metabolite, % of total intracellular radioactivity","[2]; monkey hepatocytes, 10 μM [^14C]-Compound 1, from 4-24 hours",> 70%
same,Compound 7 peak levels,"[2]; monkey hepatocytes, 10 μM [^14C]-Compound 1, at 8 hours in one donor and at 24 hours in the second",895 pmol/million cells and 552 pmol/million cells
